The compounds below were run against FXa (Homo sapiens, UniProt P00742) (assay: Factor Xa inhibition (FXa-IC50)). Details: not given.
Format: biochemical

Chain of FXa (P00742 235-488 limits assumed): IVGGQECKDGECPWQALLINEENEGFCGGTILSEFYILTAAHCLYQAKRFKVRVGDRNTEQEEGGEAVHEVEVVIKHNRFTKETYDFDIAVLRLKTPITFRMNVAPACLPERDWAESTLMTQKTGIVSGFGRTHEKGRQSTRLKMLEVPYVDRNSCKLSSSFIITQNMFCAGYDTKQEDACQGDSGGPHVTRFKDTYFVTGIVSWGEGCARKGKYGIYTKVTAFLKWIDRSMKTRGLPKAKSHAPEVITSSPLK
Chain of FXa (P00742 41-179 partner limits assumed): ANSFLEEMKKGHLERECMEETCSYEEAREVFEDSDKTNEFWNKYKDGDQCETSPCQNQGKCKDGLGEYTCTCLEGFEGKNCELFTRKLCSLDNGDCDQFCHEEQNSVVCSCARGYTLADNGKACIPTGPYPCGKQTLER

| Compound | IC50 [nM] |
| --- | --- |
| C#Cc1ccc(NC(=O)N2C[C@H](OC)C[C@@H]2C(=O)Nc2ccc(N3CCOCC3=O)cc2)cc1 [Compound A2, 1-[(4-ethynylphenyl)]-2-{[4-(3-oxomorpholin-4-yl)phenyl]}-(2R,4R)-4-methoxypyrrolidine-1,2-dicarboxamide] | 3.1 |
| C#Cc1ccc(NC(=O)N2C[C@H](OC)C[C@@H]2C(=O)Nc2ccc(-n3ccccc3=O)cc2)cc1 [Compound A1, 1-[(4-ethynylphenyl)]-2-{[4-(2-oxo-2H-pyridin-1-yl)phenyl]}-(2R,4R)-4-methoxypyrrolidine-1,2-dicarboxamide] | 1.3 |

Same assay, conditions: read-out: FXa-IC50

| Compound | IC50 [nM] |
| --- | --- |
| C#Cc1ccc(NC(=O)N2C[C@H](OCC(=O)O)C[C@@H]2C(=O)Nc2ccc(N3CCOCC3=O)cc2)cc1 [Compound A4-11, 1-[(4-ethynylphenyl)]-2-{[4-(3-oxomorpholin-4-yl)phenyl]}-(2R,4R)-4-(carboxymethoxy)pyrrolidine-1,2-dicarboxamide] | 4.8 |
| C#Cc1ccc(NC(=O)N2CC(O)CC2C(=O)Nc2ccc3c(c2)CCN3C(C)=O)cc1 [Compound A4-3, 1-[(4-ethynylphenyl)]-2-{[1-acetyl-2,3-dihydro-1H-indol-5-yl]}-(2R,4R)-4-hydroxypyrrolidine-1,2-dicarboxamide] | 2600 |
| C#Cc1ccc(NC(=O)N2CC(OC)CC2C(=O)Nc2ccc(-n3ccccc3=O)c(OC)c2)cc1 [Compound A4-4, 1-[(4-ethynylphenyl)]-2-{[3-methoxy-4-(2-oxo-2H-pyridin-1-yl)phenyl]}-(2R,4R)-4-methoxypyrrolidine-1,2-dicarboxamide] | 2.8 |
| C#Cc1ccc(NC(=O)N2C[C@H](OCC(=O)OC)C[C@@H]2C(=O)Nc2ccc(N3CCOCC3=O)cc2)cc1 [Compound A4-10, 1-[(4-ethynylphenyl)]-2-{[4-(3-oxomorpholin-4-yl)phenyl]}-(2R,4R)-4-(methoxycarbonylmethoxy)pyrrolidine-1,2-dicarboxamide] | 4.2 |
| C#CCO[C@@H]1C[C@H](C(=O)Nc2ccc(N3CCOCC3=O)cc2)N(C(=O)Nc2ccc(C#C)cc2)C1 [Compound A4-6, 1-[(4-ethynylphenyl)]-2-{[4-(3-oxomorpholin-4-yl)phenyl]}-(2R,4R)-4-propargyloxypyrrolidine-1,2-dicarboxamide] | 1.3 |
| C#Cc1ccc(NC(=O)N2C[C@H](OCCOC)C[C@@H]2C(=O)Nc2ccc(N3CCOCC3=O)cc2)cc1 [Compound A4-9, 1-[(4-ethynylphenyl)]-2-{[4-(3-oxomorpholin-4-yl)phenyl]}-(2R,4R)-4-(methoxyethoxy)pyrrolidine-1,2-dicarboxamide] | 3.3 |
| C#Cc1ccc(NC(=O)N2CC(OCC)CC2C(=O)Nc2ccc(-n3ccccc3=O)c(F)c2)cc1 [Compound A4-2, 1-[(4-ethynylphenyl)]-2-{[3-fluoro-4-(2-oxo-2H-pyridin-1-yl)phenyl]}-(2R,4R)-4-ethoxypyrrolidine-1,2-dicarboxamide] | 1.9 |
| C#Cc1ccc(NC(=O)N2C[C@H](OC)C[C@@H]2C(=O)Nc2ccc(-n3nc(C)ccc3=O)cc2)cc1 [Compound A4-12, 1-[(4-ethynylphenyl)]-2-{[4-(6-methyl-3-oxo-2H-pyridazin-2-yl)phenyl]}-(2R,4R)-4-methoxypyrrolidine-1,2-dicarboxamide] | 2100 |
| C#Cc1ccc(NC(=O)N2CC(OCC(O)CO)CC2C(=O)Nc2ccc(N3CCOCC3=O)cc2)cc1 [Compound A4-7, 1-[(4-ethynylphenyl)]-2-{[4-(3-oxomorpholin-4-yl)phenyl]}-(2R,4R)-4-(2,3-dihydroxypropoxy)pyrrolidine-1,2-dicarboxamide] | 3.1 |
| C#Cc1ccc(NC(=O)N2CC(OCC=C)CC2C(=O)Nc2ccc(N3CCOCC3=O)cc2)cc1 [Compound A4-5, 1-[(4-ethynylphenyl)]-2-{[4-(3-oxomorpholin-4-yl)phenyl]}-(2R,4R)-4-allyloxypyrrolidine-1,2-dicarboxamide] | 3.1 |
| C#Cc1ccc(NC(=O)N2CC(OC)CC2C(=O)Nc2ccc(N3CC(O)CC3C(=O)OC)cc2)cc1 [Compound A4-8, 1-[(4-ethynylphenyl)]-2-{[4-(2-methoxycarbonyl-4-hydroxypyrrolidin-1-yl)phenyl]}-(2R,4R)-4-methoxypyrrolidine-1,2-dicarboxamide] | 1100 |
| C#Cc1ccc(NC(=O)N2CC(OCC)CC2C(=O)Nc2ccc(N3CCCCC3=O)cc2)cc1 [Compound A4-1, 1-[(4-ethynylphenyl)]-2-{[4-(2-oxopiperidin-1-yl)phenyl]}-(2R,4R)-4-ethoxypyrrolidine-1,2-dicarboxamide] | 3 |

These compounds were tested against T1, TF/FVIIa (Homo sapiens, UniProt P08709) (assay: TF/FVIIa inhibition (TF/FVIIa-IC50)). Details: not given.
T1 construct: Coagulation factor VIIa initiates the extrinsic part of the coagulation cascade
Format: biochemical

T1 sequence (P08709 61-212): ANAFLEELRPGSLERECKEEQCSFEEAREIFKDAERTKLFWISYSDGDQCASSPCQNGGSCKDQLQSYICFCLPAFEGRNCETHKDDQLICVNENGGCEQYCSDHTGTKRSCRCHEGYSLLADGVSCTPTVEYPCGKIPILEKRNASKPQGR
T1 sequence (P08709 213-466): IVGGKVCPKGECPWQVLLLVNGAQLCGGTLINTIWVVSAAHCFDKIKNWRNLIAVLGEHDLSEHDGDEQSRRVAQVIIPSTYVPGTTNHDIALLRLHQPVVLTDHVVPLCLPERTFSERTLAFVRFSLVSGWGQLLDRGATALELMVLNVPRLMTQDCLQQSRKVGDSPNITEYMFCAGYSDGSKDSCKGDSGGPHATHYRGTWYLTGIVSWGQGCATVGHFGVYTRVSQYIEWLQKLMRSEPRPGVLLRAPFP
T1 sequence (P13726 33-295, further chain): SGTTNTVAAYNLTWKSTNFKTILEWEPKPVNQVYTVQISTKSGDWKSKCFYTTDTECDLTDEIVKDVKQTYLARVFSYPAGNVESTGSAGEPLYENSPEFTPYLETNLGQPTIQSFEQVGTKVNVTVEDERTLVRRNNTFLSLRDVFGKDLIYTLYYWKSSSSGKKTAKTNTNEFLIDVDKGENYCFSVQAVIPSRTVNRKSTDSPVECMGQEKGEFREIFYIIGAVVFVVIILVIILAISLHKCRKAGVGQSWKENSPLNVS

| Compound | IC50 [nM] |
| --- | --- |
| C#Cc1ccc(NC(=O)N2C[C@H](OC)C[C@@H]2C(=O)Nc2ccc(N3CCOCC3=O)cc2)cc1 [Compound A2, 1-[(4-ethynylphenyl)]-2-{[4-(3-oxomorpholin-4-yl)phenyl]}-(2R,4R)-4-methoxypyrrolidine-1,2-dicarboxamide] | 3.2 |
| C#Cc1ccc(NC(=O)N2C[C@H](OC)C[C@@H]2C(=O)Nc2ccc(-n3ccccc3=O)cc2)cc1 [Compound A1, 1-[(4-ethynylphenyl)]-2-{[4-(2-oxo-2H-pyridin-1-yl)phenyl]}-(2R,4R)-4-methoxypyrrolidine-1,2-dicarboxamide] | 1.9 |

— US7557222B2, “1-[(4-Ethynylphenyl)]-2-[(phenyl)]-pyrrolidine-1,2-dicarboxamide derivatives as inhibitors of coagulation factors Xa and VIIa for the treatment of thrombosis” (priority 2003, dated 2009)
